Values joined by “and” are separate entries in the source; they are usually repeats but may differ in a detail not shown here. Identical values can stand only once.
Columns and labels:
[1] = test system: L18-MDP-induced TNFα release; experiment: L18-MDP-induced cytokine release (TNFα, IL1β, IL-6, IL-8, IL-10) in human PBMCs; format: cell-based; conditions: L18-MDP-induced TNFα release, human PBMCs, 6 h
Description: PBMCs were isolated from leukodepletion filter from platelet aphaeresis supplied by National Health System Blood and Transplant—NHSBT Apheresed at NHBST.
Before treatment with compound or vehicle, THP1 cells, human and rat PBMCs were counted using Vi-Cell cell counter (Invitrogen) and adjusted to a final cell density of […] using complete growth medium. Cells or whole blood were treated with vehicle (0.1% DMSO) or fixed concentrations of compound up to 1 μM in half log unit increments and incubated for the time period indicated in the figure.
Where the assessment of cytokines was performed, L18-MDP was added to the cell culture media (1 μg/ml) or to the rat blood samples (100 ng/ml) and samples were incubated for up to 4 h. […] Samples were them spun down at 1000 g and the cell culture supernatant, plasma or serum were collected for cytokines assessment, while cell pellets were used for RIPK2 and/or cIAP1, cIAP2, and XIAP levels analysis via immunoblotting.
(§1) Cytokine measurement assay: Cytokine levels were measured in rat plasma or rat PBMCs cell culture supernatants using rat V-Plex TNFα, in human plasma or human PBMCs cell culture supernatants with either TNFα tissue culture or 7-plex kit. Rat serum and tissues samples from the in vivo L18-MDP acute inflammation model were analyzed using the rat TNFα, Il-6 and IL-8 U-Plex kits. All kits provided by Meso Scale Discovery (MSD). Levels of cytokines spontaneously released from human colon biopsies cell culture supernatants were measured using Human IL-1 beta/IL-1F2 DuoSet ELISA (Bio-techne), Human IL-6 ELISA (Immunotools) and Human TNF-alpha DuoSet ELISA (Bio-techne). All samples were processed accordingly to the manufacturer’s instructions. The MSD plates were analyzed using the MSD sector imager 6000 plate reader and cytokines concentration (pg/ml) was obtained by using the MSD DISCOVERY WORKBENCH software version 4.0.12.1
In vitro experimental data were analyzed using a 4-parameter logistic equation in GraphPad Prism 5.0.4. to generate an estimate of the half-maximal concentration and maximal degradation, DC50 and Dmax value respectively, for concentration-degradation relationships. Cytokine levels were analyzed in a similar manner to yield IC50 and Imax values. […] Where analysis to a sigmoidal relationship was not possible, the data points are shown as mean ± s.e.m.

[2] = test system: RIPK2; experiment: In vivo RIPK2 degradation in rat (PBMCs isolated from blood, Western blot)
Description: Rat PK/PD studies: On arrival, all rats were housed in a plastic solid bottom cage in groups of 2–3 with access to food and water ad libitum and under a 12 h light–dark cycle. Male CD or Wistar Han rats (7–9 weeks old, Charles River UK Ltd.) were randomly allocated to treatment groups upon arrival. Female CD rats (7–8 weeks old on arrival, Charles River Ltd.) were placed into groups using a randomization schedule based on body weight prior to the study start. All animals were acclimatized for a minimum of one week prior to the experiment commencing.
Subcutaneous PROTAC solution formulations were prepared on the day of dosing as outlined below and filtered through a 0.22 µm Millex PVDF filter (Millipore) prior to PROTAC administration. PROTAC 4 was dissolved in saline with the pH adjusted to 5.0 with sodium hydroxide (1 M). […].
(§2) Ex vivo stimulation of rat blood with L18-MDP for PD: PPD blood samples taken prior to PROTAC administration or at fixed timepoints post PROTAC administration through the course of the study, were treated ex vivo with 100 ng/mL L18-MDP (Invivogen) or vehicle (0.1% DMSO) and incubated for 4 h. Following centrifugation, plasma was collected for cytokines analysis as detailed in cytokines assay section. Additionally, RIPK2 levels were determined in PBMCs isolated from blood and where collected, in sampled colon tissue as described in the text.
Blood was mixed with optiPREP (Sigma) and following centrifugation at 1300 × g the PBMCs layer was collected. For in vivo studies, RIPK2 levels were determined immediately via immunoblotting, whereas for in vitro studies PBMCs were treated as detailed in the in vitro treatment section.
(§3) Statistics and reproducibility: All data were represented as percentage of the control sample: DMSO treated cells for the in vitro assays and the pre-dose or vehicle sample for the in vivo experiments.
For in vivo studies, RIPK2:tubulin ratios and cytokine levels from each individual experiment were analysed either using a One-way ANOVA with Dunnet’s post-test or a two way ANOVA using GraphPad Prism 5.0.4 to determine statistical significance with 95% confidence levels.

[3] = test system: L18-MDP-stimulated TNFα release; experiment: TNFα after ex vivo L18-MDP stimulation of blood from dosed rats; format: in vivo, rat; conditions: for TNFa level after ex vivo L18-MDP stimulation vs pre-dose, individual rat: 20 mg/kg SC single dose, 7-day study
Description: Male CD or Wistar Han rats (7–9 weeks old, Charles River UK Ltd.) were randomly allocated to treatment groups upon arrival. Female CD rats (7–8 weeks old on arrival, Charles River Ltd.) were placed into groups using a randomization schedule based on body weight prior to the study start. All animals were acclimatized for a minimum of one week prior to the experiment commencing.
Subcutaneous PROTAC solution formulations were prepared on the day of dosing as outlined below and filtered through a 0.22 µm Millex PVDF filter (Millipore) prior to PROTAC administration. PROTAC 4 was dissolved in saline with the pH adjusted to 5.0 with sodium hydroxide (1 M).
as §2, §1, §3

CN[C@@H](C)C(=O)N[C@H](C(=O)N1CCC[C@H]1c1nc(C(=O)c2ccc(F)cc2)cs1)C1CCN(C(=O)c2cnc(N3CCN(CCOc4cc5ncnc(Nc6n[nH]c(C)c6C)c5cc4S(=O)(=O)C(C)(C)C)CC3)nc2)CC1 [PROTAC 4]
hPBMC MDP pIC50 ± SEM, 6 h (n = 3) [1]: 8.0 ± 0.5 | RIPK2 level vs pre-dose, individual rat ([2]; 1 mg/kg SC, 14-day study, 8 h): 71.55% and 45.26% and 58.63% and 60.59% and 55.33% | RIPK2 level vs pre-dose, individual rat ([2]; 1 mg/kg SC, 14-day study, 72 h): 64.81% and 59.31% and 60.99% and 66.83% and 64.49% | RIPK2 level vs pre-dose, individual rat ([2]; 1 mg/kg SC, 14-day study, 240 h): 112.79% and 70.63% and 104.75% and 126.83% and 102.52% | RIPK2 level vs pre-dose, individual rat ([2]; 5 mg/kg SC, 14-day study, 8 h): 41.85% and 45.44% and 41.77% and 41.32% and 53.21% | RIPK2 level vs pre-dose, individual rat ([2]; 5 mg/kg SC, 14-day study, 72 h): 34.61% and 30.18% and 38.68% and 37.78% and 36.11% | RIPK2 level vs pre-dose, individual rat ([2]; 5 mg/kg SC, 14-day study, 240 h): 87.11% and 99.39% and 92.18% and 103.23% and 99.62% | RIPK2 level vs pre-dose, individual rat ([2]; 20 mg/kg SC single dose, 7-day study, 8 h): 28.87% and 26.27% and 38.47% and 28.32% and 30.61% | RIPK2 level vs pre-dose, individual rat ([2]; 20 mg/kg SC single dose, 7-day study, 24 h): 18.69% and 14.21% and 28.44% and 16.94% and 23.48% | RIPK2 level vs pre-dose, individual rat ([2]; 20 mg/kg SC single dose, 7-day study, 72 h): 6.86% and 4.61% and 6.88% and 8.62% and 8.55% | RIPK2 level vs pre-dose, individual rat ([2]; 20 mg/kg SC single dose, 7-day study, 168 h): 12.52% and 6.26% and 20.35% and 12.51% and 16.81% | RIPK2 level vs pre-dose, individual rat ([2]; 20 mg/kg SC, 14-day study, 8 h): 37.50% and 45.03% and 47.72% and 58.85% and 77.11% | RIPK2 level vs pre-dose, individual rat ([2]; 20 mg/kg SC, 14-day study, 72 h): 13.52% and 12.63% and 25.66% and 9.20% and 12.50% | RIPK2 level vs pre-dose, individual rat ([2]; 20 mg/kg SC, 14-day study, 240 h): 60.06% and 118.48% and 58.34% and 98.90% and 86.42% | RIPK2 degradation ([2]; rat, 14-day study, all dose levels (1, 5, 20 mg/kg SC), 8 h): 40–60% | RIPK2 protein levels, in words ([2]; rat, 14-day study, each dose group, 240 h): returned to baseline levels | RIPK2 degradation ([2]; rat, single 20 mg/kg SC, 72 h): > 80% | RIPK2 degradation ([2]; rat, single 20 mg/kg SC, 168 h): > 80% | TNFa level after ex vivo L18-MDP stimulation vs pre-dose, individual rat ([3]; 8 h): 9.24% and 8.84% and 7.78% and 9.53% and 3.34% | TNFa level after ex vivo L18-MDP stimulation vs pre-dose, individual rat ([3]; 24 h): 3.87% and 3.74% and 8.65% and 6.37% and 4.55% | TNFa level after ex vivo L18-MDP stimulation vs pre-dose, individual rat ([3]; 72 h): 10.34% and 56.63% and 10.25% and 43.76% and 3.57% | TNFa level after ex vivo L18-MDP stimulation vs pre-dose, individual rat ([3]; 168 h): 12.29% and 8.70% and 24.16% and 13.36% and 15.12% | TNFα inhibition following ex vivo L18-MDP stimulation in rat blood ([3]; single 20 mg/kg SC, throughout the 7-day study): > 70%

Source: publication PMC7083851, “Extended pharmacodynamic responses observed upon PROTAC-mediated degradation of RIPK2” (Communications Biology, 2020)
